Experimental data published in US20210069120A1, “COMPOSITE NANOPARTICLE, PREPARATION METHOD THEREOF AND PREPARATION METHOD OF COMPOSITE NANO PREPARATION USING THEREOF” (JINAN UNIVERSITY, priority 2018, published 2021).

How the values were obtained:
[1] = tested on: MDA-MB-231 cells; experiment: Apoptosis of MDA-MB-231 cells detected by flow cytometry (Annexin V-FITC/PI); assay type: cell-based, human
Method: After Blank PLN, PTX, PSO, I-PSO, PTX+PSO+I-PSO and (PTX+PSO+I-PSO)-PLN were used to act on the MDA-MB-231 cells respectively, a blank control without drug treatment was set at the same time. Cells were collected, an Annexin V-FITC buffer solution and a propidium iodide (PI) staining solution were added respectively, and cell apoptosis was detected by a flow cytometry, wherein green fluorescence was Annexin V-FITC, and red fluorescence was PI. Annexin V-FITC/PI double staining was dominant in late apoptotic cells and dead cells which referred to an upper right region on a flow cytometry diagram, while AnnexinV-FITC staining was dominant in early apoptotic cells which referred to a lower right region on the flow cytometry diagram. The experiment was repeated for three times.

[2] = tested on: MDA-MB-231 cells; experiment: MTT proliferation inhibition / toxicity on MDA-MB-231; assay type: cell-based, human; conditions: 48 hours, concentration range of 0.39 to 100 μmol/L
Method: 4×10^3 MDA-MB-231 cells/well were inoculated into a 96-well plate with a concentration of 100 μL/well, and cultured in a 5% CO2 cell incubator at 37° C. for 24 hours, then a supernatant was removed after 24 hours, and 200 μL of drug-containing medium was added. The final concentrations of the PTX added to the MDA-MB-231 cells were 0.0039 μmol/L, 0.0078 μmol/L, 0.0156 μmol/L, 0.03125 μmol/L, 0.0625 μmol/L, 0.125 μmol/L, 0.25 μmol/L, 0.5 μmol/L and 1 μmol/L. At the same time, a control group (the same amount of culture fluid was added) and a blank zeroing group were set up. Each well was provided with 6 multiple wells and placed in a CO2 incubator for continuous cultivation for 48 hours. […] An OD value was measured at 570 nm of an enzyme reader. […]
(§1) 4×10^3 MDA-MB-231 cells/well were inoculated into a 96-well plate with a concentration of 100 μL/well, and cultured in a 5% CO2 cell incubator at 37° C. for 24 hours, then a supernatant was removed after 24 hours, and 200 μL of drug-containing medium was added. […] An OD value was measured at 570 nm of an enzyme reader. […]
as §1

SMILES	Apoptosis rate (%) of MDA-MB-231 cells [1]	toxicity to the MDA-MB-231 cells (cell viability) [2]
O=c1ccc2ccc3occc3c2o1 [I-PSO, isopsoralen]	11.5%	
O=c1ccc2cc3ccoc3cc2o1 [PSO, psoralen]	13.8%	no obvious toxicity
CC(=O)O[C@H]1C(=O)[C@@]2(C)[C@H]([C@H](OC(=O)c3ccccc3)[C@]3(O)C[C@H](OC(=O)[C@H](O)[C@@H](NC(=O)c4ccccc4)c4ccccc4)C(C)=C1C3(C)C)[C@]1(OC(C)=O)CO[C@@H]1C[C@@H]2O [PTX, paclitaxel]	15.1%	
